From ChEMBL document CHEMBL4312031, “Discovery of candesartan cilexetic as a novel neddylation inhibitor for suppressing tumor growth” (Eur J Med Chem, 2020)
Activity calls are given as the source filed them. No cut-off for these calls is given here.

Tests used:
BEAS-2B = assay: Cytotoxicity against human BEAS2B cells after 48 hrs by CCK-8 assay; assay type: cell-based
A549 [1] = assay: Cell cycle arrest in human A549 cells assessed as accumulation at sub-G1 phase at 50 uM measured after 24 hrs by propidium iodide/RNase A staining based flow cytometry analysis (reference value: 0.89 %); assay type: functional
A549 [2] = assay: Inhibition of colony formation in human A549 cells measured after 10 days; assay type: functional, cell-based
A549 [3] = assay: Induction of apoptosis in human A549 cells assessed as late apoptotic cells at 75 uM measured after 48 hrs by AnnexinV-FITC/propidium iodide staining based FACS analysis (reference value: 1.71 %); assay type: functional
HepG2 = assay: Antiproliferative activity against human HepG2 cells measured after 48 hrs by CCK8 assay; assay type: functional, cell-based; conditions: HepG2, 48 h
[4] = molecular target: NEDD8/NEDD8-conjugating enzyme Ubc12 (Homo sapiens) (UniProt P61081+Q15843); assay: Inhibition of Nedd8-Ubc12 (unknown origin) assessed as decrease in Ubc12-Nedd8 adduct formation at 50 uM preincubated for 10 mins followed by ATP addition and measured after 30 mins by immunoblot analysis; assay type: protein-complex assay
A549 [5] = assay: Cell cycle arrest in human A549 cells assessed as accumulation at G1 phase at 50 uM measured after 24 hrs by propidium iodide/RNase A staining based flow cytometry analysis (reference value: 63.84 %); assay type: functional
[6] = molecular target: T1, NEDD8-conjugating enzyme Ubc12 (Homo sapiens) (UniProt P61081); assay: Inhibition of UBC12 in human A549 cells assessed as decrease in Cullin1-Nedd8 adduct level measured after 6 to 12 hrs by Western blot analysis; assay type: cell-based
T1 sequence (whole entry): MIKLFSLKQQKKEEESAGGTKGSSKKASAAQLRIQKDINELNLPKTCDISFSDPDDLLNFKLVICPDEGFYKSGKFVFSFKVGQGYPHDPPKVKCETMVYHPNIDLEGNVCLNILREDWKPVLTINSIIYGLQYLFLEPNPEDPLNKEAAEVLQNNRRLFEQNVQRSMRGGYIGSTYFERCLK

A549 [7] = assay: Cell cycle arrest in human A549 cells assessed as accumulation at sub-G1 phase at 25 uM measured after 24 hrs by propidium iodide/RNase A staining based flow cytometry analysis (reference value: 0.89 %); assay type: functional
[8] = molecular target: T1, NEDD8-conjugating enzyme Ubc12 (Homo sapiens); assay: Inhibition of UBC12 in human A549 cells assessed as decrease in Cullin2-Nedd8 adduct level at 50 uM measured after 6 to 12 hrs by Western blot analysis; assay type: cell-based
A549 [9] = assay: Cell cycle arrest in human A549 cells assessed as accumulation at S phase at 50 uM measured after 24 hrs by propidium iodide/RNase A staining based flow cytometry analysis (reference value: 21.54 %); assay type: functional
[10] = molecular target: T2, NEDD8/Cullin-1 (Homo sapiens) (UniProt Q13616+Q15843); assay: Competitive inhibition of Nedd8-cullin1 (unknown origin) adduct formation at 12.5 to 50 uM assessed as substrate Vmax by Lineweaver-Burk plot analysis; assay type: protein assay
A549 [11] = assay: Cell cycle arrest in human A549 cells assessed as accumulation at G1 phase at 25 uM measured after 24 hrs by propidium iodide/RNase A staining based flow cytometry analysis (reference value: 63.84 %); assay type: functional
A549 [12] = assay: Induction of apoptosis in human A549 cells assessed as increase in PARP cleavage at 50 to 100 uM by Western blot analysis; assay type: functional, cell-based
Huh-7 = assay: Antiproliferative activity against human HuH7 cells measured after 48 hrs by CCK8 assay; assay type: functional, cell-based; conditions: Huh-7, 48 h
A549 [13] = assay: Cell cycle arrest in human A549 cells assessed as accumulation at G1 phase at 75 uM measured after 24 hrs by propidium iodide/RNase A staining based flow cytometry analysis (reference value: 63.84 %); assay type: functional
[14] = molecular target: T1, NEDD8-conjugating enzyme Ubc12 (Homo sapiens); assay: Inhibition of UBC12 in human A549 cells assessed as decrease in Cullin4a-Nedd8 adduct level at 50 uM measured after 6 to 12 hrs by Western blot analysis; assay type: cell-based
A549 [15] = assay: Effect on SUMO1 level in human A549 cells by Western blot analysis; assay type: functional, cell-based
A549 [16] = assay: Antitumor activity against human A549 cells xenografted in nude mouse assessed as decrease in tumor weight at 60 mg/kg, ip qd measured after 22 days; assay type: functional, organism-based
EKVX = assay: Antiproliferative activity against human EKVX cells measured after 48 hrs by CCK8 assay; assay type: functional, cell-based
A549 [17] = assay: Induction of apoptosis in human A549 cells assessed as early apoptotic cells at 50 uM measured after 48 hrs by AnnexinV-FITC/propidium iodide staining based FACS analysis (reference value: 2.19 %); assay type: functional
[18] = molecular target: T3, NEDD8-conjugating enzyme UBE2F (Homo sapiens) (UniProt Q969M7); assay: Inhibition of UBE2F in human A549 cells assessed as decrease in Cullin5-Nedd8 adduct level at 50 uM measured after 6 to 12 hrs by Western blot analysis; assay type: cell-based
T3 sequence (whole entry): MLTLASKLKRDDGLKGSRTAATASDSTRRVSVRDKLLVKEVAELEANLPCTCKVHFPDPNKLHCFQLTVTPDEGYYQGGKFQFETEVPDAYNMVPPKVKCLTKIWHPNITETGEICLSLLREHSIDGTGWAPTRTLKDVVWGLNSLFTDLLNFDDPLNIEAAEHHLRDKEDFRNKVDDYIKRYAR

A549 [19] = assay: Induction of apoptosis in human A549 cells assessed as early apoptotic cells at 75 uM measured after 48 hrs by AnnexinV-FITC/propidium iodide staining based FACS analysis (reference value: 2.19 %); assay type: functional
A549 [20] = assay: Antiproliferative activity against human A549 cells measured after 48 hrs by CCK8 assay; assay type: functional, cell-based; conditions: A549, 48 h
A549 [21] = assay: Effect on Ub-modified protein level in human A549 cells by Western blot analysis; assay type: functional, cell-based
A549 [22] = assay: Cell cycle arrest in human A549 cells assessed as accumulation at sub-G1 phase at 75 uM measured after 24 hrs by propidium iodide/RNase A staining based flow cytometry analysis (reference value: 0.89 %); assay type: functional
A549 [23] = assay: Induction of apoptosis in human A549 cells assessed as late apoptotic cells at 50 uM measured after 48 hrs by AnnexinV-FITC/propidium iodide staining based FACS analysis (reference value: 1.71 %); assay type: functional
MKN-45 = assay: Antiproliferative activity against human MKN45 cells measured after 48 hrs by CCK8 assay; assay type: functional, cell-based; conditions: MKN-45, 48 h
[24] = molecular target: T2, NEDD8/Cullin-1 (Homo sapiens); assay: Inhibition of Nedd8-cullin1 adduct formation in human A549 cells assessed as decrease in cullin1 neddylation at 100 uM incubated for 6 to 12 hrs by Western blot analysis; assay type: cell-based
[25] = molecular target: SUMO-conjugating enzyme UBC9 (Homo sapiens) (UniProt P63279); assay: Inhibition of Ubc9 in human A549 cells assessed as reduction in protein sumoylation by measuring Ubc9-Sumo adduct formation at 50 to 100 uM by Western blot analysis; assay type: cell-based
[26] = molecular target: T2, NEDD8/Cullin-1 (Homo sapiens); assay: Competitive inhibition of Nedd8-cullin1 (unknown origin) adduct formation at 12.5 to 50 uM assessed as increase in substrate Km by Lineweaver-Burk plot analysis; assay type: protein assay

T2 sequence (Q13616 whole entry, looked up): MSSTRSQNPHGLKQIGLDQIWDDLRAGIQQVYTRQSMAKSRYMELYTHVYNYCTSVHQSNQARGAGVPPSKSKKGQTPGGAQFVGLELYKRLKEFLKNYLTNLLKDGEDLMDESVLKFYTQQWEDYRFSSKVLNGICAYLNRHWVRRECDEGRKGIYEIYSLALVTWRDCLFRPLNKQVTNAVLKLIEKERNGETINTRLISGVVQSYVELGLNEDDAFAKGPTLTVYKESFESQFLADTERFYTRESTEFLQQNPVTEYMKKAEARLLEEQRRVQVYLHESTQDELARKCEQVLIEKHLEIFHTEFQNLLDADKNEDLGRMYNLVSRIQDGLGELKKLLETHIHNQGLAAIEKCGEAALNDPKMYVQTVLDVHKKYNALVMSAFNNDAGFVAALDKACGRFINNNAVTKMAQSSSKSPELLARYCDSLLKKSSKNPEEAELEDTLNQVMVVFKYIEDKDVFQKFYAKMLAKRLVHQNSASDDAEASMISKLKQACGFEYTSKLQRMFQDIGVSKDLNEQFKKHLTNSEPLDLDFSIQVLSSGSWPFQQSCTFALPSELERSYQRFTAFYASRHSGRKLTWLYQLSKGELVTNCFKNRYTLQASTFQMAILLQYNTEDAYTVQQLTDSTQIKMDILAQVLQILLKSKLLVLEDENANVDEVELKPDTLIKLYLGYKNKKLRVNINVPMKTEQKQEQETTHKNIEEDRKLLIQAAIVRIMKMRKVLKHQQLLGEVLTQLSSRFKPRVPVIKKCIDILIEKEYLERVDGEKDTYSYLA
T2 sequence (Q15843 whole entry, looked up): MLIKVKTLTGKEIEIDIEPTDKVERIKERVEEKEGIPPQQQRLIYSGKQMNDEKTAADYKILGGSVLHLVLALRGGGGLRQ
Chain of SUMO-conjugating enzyme UBC9 (Homo sapiens) (P63279 whole entry): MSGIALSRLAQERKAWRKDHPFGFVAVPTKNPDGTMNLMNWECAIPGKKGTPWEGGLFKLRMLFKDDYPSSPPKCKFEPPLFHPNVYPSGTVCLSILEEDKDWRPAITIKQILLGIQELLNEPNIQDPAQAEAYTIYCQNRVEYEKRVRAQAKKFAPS

In the case of `CCOc1nc2cccc(C(=O)OC(C)OC(=O)OC3CCCCC3)c2n1Cc1ccc(-c2ccccc2-c2nn[nH]n2)cc1` (stereo unspecified) [CANDESARTAN CILEXETIL], the IC50 (BEAS-2B) is reported as 89.9 µM, the Activity (A549 [1]) is reported as 20.35% and the inhibition (A549 [2]) is reported as “Dose-dependent effect”. For the same compound, the Activity (A549 [3]) was 14.26%, the IC50 (HepG2) was over 100 µM and the inhibition [4] was 100%. The Activity (A549 [5]) was 60.18%, the inhibition [6] was “Dose-dependent effect” and the Activity (A549 [7]) was 9.54%. For the same compound, the inhibition [8] was “Active”, the Activity (A549 [9]) was 11.53% and the inhibition [10] was “Active”. For the same compound, the Activity (A549 [11]) was 63.02%, the Activity (A549 [12]) was “Active” and the IC50 (Huh-7) was over 100 µM. For the same compound, the Activity (A549 [13]) was 40.44%, the inhibition [14] was “Active” and the Activity (A549 [15]) was “inactive”. The Activity (A549 [16]) was “Active”, the IC50 (EKVX) was over 100 µM and the Activity (A549 [17]) was 11.77%. For the same compound, the inhibition [18] was “Active”, the Activity (A549 [19]) was 36.64% and the IC50 (A549 [20]) was 63.9 µM. For the same compound, the Activity (A549 [21]) was “Active”, the Activity (A549 [22]) was 30.45% and the Activity (A549 [23]) was 13.36%. For the same compound, the IC50 (MKN-45) was 68.9 µM, the inhibition [24] was “Active” and the inhibition [25] was “inactive”. For the same compound, the inhibition [26] was “Active”.
